The target in this assay is Bcl-xL (Homo sapiens). Put plainly: Inhibition of Bak peptide binding to human recombinant Bcl-Xl.

For the compound `CCOC(=O)[C@H](Cc1ccccc1)N1C(=O)/C(=C/c2ccc(OCOc3ccc(/C=C4\SC(=S)N([C@@H](Cc5ccccc5)C(=O)OCC)C4=O)cc3)cc2)SC1=S`, the Ki was 58.4 µM.
For the compound `O=C(OCCOC(=O)[C@H](Cc1ccccc1)N1C(=O)/C(=C/c2ccc(Br)cc2)SC1=S)[C@H](Cc1ccccc1)N1C(=O)/C(=C/c2ccc(Br)cc2)SC1=S`, the Ki stood at 134 µM.
`O=C(O)[C@H](Cc1ccccc1)N1C(=O)/C(=C/c2ccc(OCCOc3ccc(/C=C4\SC(=S)N([C@@H](Cc5ccccc5)C(=O)O)C4=O)cc3)cc2)SC1=S`: the Ki came to 0.97 µM.

Values taken from BindingDB's records for doi:10.1016/j.bmcl.2007.10.088 (University of Minnesota Minneapolis, 2008).
